# Measurements reported in ChEMBL document CHEMBL4229569, “Structure-Based Design of 1-Heteroaryl-1,3-propanediamine Derivatives as a Novel Series of CC-Chemokine Receptor 5 Antagonists” (J Med Chem, 2018).
# Assays:
# [1] = Drug level in rat liver cells assessed as CYP450-mediated compound formation treated with 4,4-Difluoro-N-(3-((1R,3S,5S)-3-(3-isopropyl-5-methyl-4H-1,2,4-triazol-4-yl)-8-azabicyclo[3.2.1]octan-8-yl)-1-(thiophen-3-yl)-propyl)cyclohexane-1-carboxamide by UPLC/Q-TOF mass spectrometric analysis; format: ADME, cell-based; conditions: recombinant enzyme
# [2] = Drug level in dog liver cells assessed as CYP450-mediated compound formation treated with maraviroc by Q-TOF mass spectrometric analysis; format: ADME, cell-based, Canis lupus familiaris; conditions: recombinant enzyme
# [3] = Drug level in rat liver cells assessed as CYP450-mediated compound formation treated with maraviroc by Q-TOF mass spectrometric analysis; format: ADME, cell-based; conditions: recombinant enzyme
# [4] = Drug level in human liver cells assessed as CYP450-mediated compound formation treated with 4,4-Difluoro-N-(3-((1R,3S,5S)-3-(3-isopropyl-5-methyl-4H-1,2,4-triazol-4-yl)-8-azabicyclo[3.2.1]octan-8-yl)-1-(thiophen-3-yl)-propyl)cyclohexane-1-carboxamide by UPLC/Q-TOF mass spectrometric analysis; format: ADME, cell-based; conditions: recombinant enzyme
# [5] = Drug level in dog liver cells assessed as CYP450-mediated compound formation treated with 4,4-Difluoro-N-(3-((1R,3S,5S)-3-(3-isopropyl-5-methyl-4H-1,2,4-triazol-4-yl)-8-azabicyclo[3.2.1]octan-8-yl)-1-(thiophen-3-yl)-propyl)cyclohexane-1-carboxamide by UPLC/Q-TOF mass spectrometric analysis; format: ADME, cell-based, Canis lupus familiaris; conditions: recombinant enzyme
# [6] = Drug level in mouse liver cells assessed as CYP450-mediated compound formation treated with 4,4-Difluoro-N-(3-((1R,3S,5S)-3-(3-isopropyl-5-methyl-4H-1,2,4-triazol-4-yl)-8-azabicyclo[3.2.1]octan-8-yl)-1-(thiophen-3-yl)-propyl)cyclohexane-1-carboxamide by UPLC/Q-TOF mass spectrometric analysis; format: ADME, cell-based; conditions: recombinant enzyme
# [7] = Drug level in human liver cells assessed as CYP450-mediated compound formation treated with maraviroc by Q-TOF mass spectrometric analysis; format: ADME, cell-based; conditions: recombinant enzyme
# [8] = Cmax in Sprague-Dawley rat at 20 mg/kg, po by LC-MS/MS analysis; format: ADME, organism-based; set-up: dose 20 mg/kg, route oral; conditions: in vivo
# [9] = AUC (0 to infinity) in Sprague-Dawley rat at 20 mg/kg, po by LC-MS/MS analysis; format: ADME, organism-based; set-up: dose 20 mg/kg, route oral, time infinity; conditions: in vivo
# in vitro [10] = conditions: human, PBMC
# Description: Therapeutic index, ratio of CC50 for human PBMC to IC50 for CCR5-dependent HIV1 KM018 infected in human PBMC
# [11] = tested on: Human immunodeficiency virus 1; assay: microbe, parasite or virus in culture; conditions: Human immunodeficiency virus 1, KM018, PBMC, 168 h
# Description: Antiviral activity against CCR5-dependent HIV1 KM018 infected in human PBMC assessed as reduction in virus infection measured after 7 days by luciferase reporter gene assay
# [12] = AUC (0 to infinity) in Sprague-Dawley rat at 10 mg/kg, iv by LC-MS/MS analysis; format: ADME, organism-based; set-up: dose 10 mg/kg, time infinity, route intravenous; conditions: in vivo
# [13] = Cmax in dog at 15 mg/kg, po by LC-MS/MS analysis; format: ADME, organism-based, Canis lupus familiaris; set-up: dose 15 mg/kg, route oral; conditions: in vivo
# [14] = tested on: Human immunodeficiency virus 1; assay: microbe, parasite or virus in culture; conditions: Human immunodeficiency virus 1, SF162, PBMC, 168 h
# Description: Antiviral activity against CCR5-dependent HIV1 SF162 infected in human PBMC assessed as reduction in virus infection measured after 7 days by luciferase reporter gene assay
# [15] = tested on: Human immunodeficiency virus 1; assay: microbe, parasite or virus in culture; conditions: Human immunodeficiency virus 1, SF162, HOS, 120 h
# Description: Antiviral activity against CCR5-dependent HIV1 SF162 infected in human HOS cells assessed as reduction in virus infection measured after 5 days by luciferase reporter gene assay
# [16] = tested on: Human immunodeficiency virus 1; assay: microbe, parasite or virus in culture; conditions: Human immunodeficiency virus 1, Ba-L, HOS, 120 h
# Description: Antiviral activity against CCR5-dependent HIV1 Ba-L infected in human HOS cells assessed as reduction in virus infection measured after 5 days by luciferase reporter gene assay
# [17] = biological target: Voltage-gated inwardly rectifying potassium channel KCNH2 (Homo sapiens, UniProt Q12809); assay: Inhibition of human ERG expressed in CHO cells at holding potential of -80 mV after 60 secs by patch clamp assay; format: cell-based
# Voltage-gated inwardly rectifying potassium channel KCNH2, sequence (Q12809 whole entry): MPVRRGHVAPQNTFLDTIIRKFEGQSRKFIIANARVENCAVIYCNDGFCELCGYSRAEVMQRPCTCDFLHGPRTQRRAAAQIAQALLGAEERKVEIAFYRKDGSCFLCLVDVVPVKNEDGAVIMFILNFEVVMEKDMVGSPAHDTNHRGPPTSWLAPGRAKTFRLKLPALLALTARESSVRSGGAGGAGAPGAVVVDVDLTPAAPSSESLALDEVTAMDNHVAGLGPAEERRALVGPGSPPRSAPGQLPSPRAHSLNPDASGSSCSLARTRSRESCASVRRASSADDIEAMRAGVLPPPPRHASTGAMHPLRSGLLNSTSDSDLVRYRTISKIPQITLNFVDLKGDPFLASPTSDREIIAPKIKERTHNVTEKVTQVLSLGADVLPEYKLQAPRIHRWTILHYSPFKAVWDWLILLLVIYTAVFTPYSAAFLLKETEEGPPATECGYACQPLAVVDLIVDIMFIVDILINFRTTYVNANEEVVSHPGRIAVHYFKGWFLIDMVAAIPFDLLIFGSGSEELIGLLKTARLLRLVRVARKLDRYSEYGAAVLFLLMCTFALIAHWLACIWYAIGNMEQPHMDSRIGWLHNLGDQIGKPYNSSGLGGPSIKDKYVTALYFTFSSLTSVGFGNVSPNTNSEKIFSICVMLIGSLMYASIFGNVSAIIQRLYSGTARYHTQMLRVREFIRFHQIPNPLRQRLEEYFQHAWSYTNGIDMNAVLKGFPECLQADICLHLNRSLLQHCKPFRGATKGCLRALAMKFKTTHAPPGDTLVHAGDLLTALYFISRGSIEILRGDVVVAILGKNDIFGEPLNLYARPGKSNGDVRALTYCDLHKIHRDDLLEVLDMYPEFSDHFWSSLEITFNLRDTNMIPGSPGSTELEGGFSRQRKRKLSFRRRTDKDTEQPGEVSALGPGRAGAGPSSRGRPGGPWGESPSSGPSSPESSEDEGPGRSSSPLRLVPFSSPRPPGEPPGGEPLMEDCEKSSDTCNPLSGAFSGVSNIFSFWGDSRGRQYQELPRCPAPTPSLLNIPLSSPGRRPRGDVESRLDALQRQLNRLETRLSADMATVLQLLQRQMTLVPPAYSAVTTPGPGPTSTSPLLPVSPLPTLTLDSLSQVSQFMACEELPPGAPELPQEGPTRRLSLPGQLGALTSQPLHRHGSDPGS
# [18] = Oral bioavailability in Sprague-Dawley rat at 20 mg/kg by LC-MS/MS analysis; format: ADME, organism-based; conditions: in vivo
# [19] = MRT in Sprague-Dawley rat at 20 mg/kg, po by LC-MS/MS analysis; format: ADME, organism-based; conditions: in vivo
# [20] = AUC (0 to infinity) in dog at 3 mg/kg, iv by LC-MS/MS analysis; format: ADME, organism-based, Canis lupus familiaris; set-up: dose 3 mg/kg, route intravenous, time infinity; conditions: in vivo
# [21] = Half life in dog at 15 mg/kg, po by LC-MS/MS analysis; format: ADME, organism-based, Canis lupus familiaris; conditions: in vivo
# [22] = MRT in dog at 3 mg/kg, iv by LC-MS/MS analysis; format: ADME, organism-based, Canis lupus familiaris; conditions: in vivo
# [23] = AUC (0 to infinity) in dog at 15 mg/kg, po by LC-MS/MS analysis; format: ADME, organism-based, Canis lupus familiaris; set-up: dose 15 mg/kg, time infinity, route oral; conditions: in vivo
# [24] = Clearance in Sprague-Dawley rat at 10 mg/kg, iv by LC-MS/MS analysis; format: ADME, organism-based; conditions: in vivo
# in vitro [25] = conditions: human, HOS cells
# Description: Therapeutic index, ratio of CC50 for human HOS cells to IC50 for CCR5-dependent HIV1 SF162 infected in human HOS cells
# [26] = Tmax in dog at 15 mg/kg, po by LC-MS/MS analysis; format: ADME, organism-based, Canis lupus familiaris; conditions: in vivo
# Cytochrome P450 2D6 = Cytochrome P450 2D6 (Homo sapiens, UniProt P10635); assay: Inhibition of CYP2D6 (unknown origin); format: ADME
# Cytochrome P450 2D6, sequence (P10635 whole entry): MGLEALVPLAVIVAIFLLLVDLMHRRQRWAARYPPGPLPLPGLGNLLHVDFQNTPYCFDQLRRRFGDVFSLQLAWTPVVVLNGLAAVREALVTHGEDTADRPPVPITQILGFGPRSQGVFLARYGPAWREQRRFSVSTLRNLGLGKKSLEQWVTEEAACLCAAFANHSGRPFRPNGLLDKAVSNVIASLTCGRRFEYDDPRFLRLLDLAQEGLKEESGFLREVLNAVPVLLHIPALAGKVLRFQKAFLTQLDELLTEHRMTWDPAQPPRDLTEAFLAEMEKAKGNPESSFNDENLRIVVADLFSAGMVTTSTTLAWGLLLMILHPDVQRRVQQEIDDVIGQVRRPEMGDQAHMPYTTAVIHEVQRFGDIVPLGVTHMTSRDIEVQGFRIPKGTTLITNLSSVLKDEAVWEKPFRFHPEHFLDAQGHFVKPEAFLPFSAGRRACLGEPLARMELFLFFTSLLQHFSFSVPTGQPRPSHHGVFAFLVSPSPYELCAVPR
# [27] = Half life in Sprague-Dawley rat at 20 mg/kg, po by LC-MS/MS analysis; format: ADME, organism-based; conditions: in vivo
# [28] = Cytotoxicity against human TZM-bl cells after 48 hrs by MTT assay; format: cell-based
# Cytochrome P450 2C19 = Cytochrome P450 2C19 (Homo sapiens, UniProt P33261); assay: Inhibition of CYP2C19 (unknown origin); format: ADME
# Cytochrome P450 2C19, sequence (P33261 whole entry): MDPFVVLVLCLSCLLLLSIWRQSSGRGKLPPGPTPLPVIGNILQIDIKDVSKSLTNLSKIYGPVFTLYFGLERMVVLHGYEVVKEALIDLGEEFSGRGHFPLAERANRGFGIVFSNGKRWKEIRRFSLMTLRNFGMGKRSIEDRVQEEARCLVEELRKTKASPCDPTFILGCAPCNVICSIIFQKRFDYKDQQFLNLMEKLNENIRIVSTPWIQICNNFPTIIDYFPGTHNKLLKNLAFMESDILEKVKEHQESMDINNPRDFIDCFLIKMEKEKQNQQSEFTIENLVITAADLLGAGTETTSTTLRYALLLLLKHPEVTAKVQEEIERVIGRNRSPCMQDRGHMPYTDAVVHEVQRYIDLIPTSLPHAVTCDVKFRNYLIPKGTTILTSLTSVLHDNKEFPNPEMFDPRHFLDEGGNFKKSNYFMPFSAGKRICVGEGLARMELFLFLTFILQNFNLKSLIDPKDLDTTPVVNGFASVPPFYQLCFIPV
# in vitro [29] = conditions: human, PBMC; remark: listed apart in the source
# Description: Therapeutic index, ratio of CC50 for human PBMC to IC50 for CCR5-dependent HIV1 SF162 infected in human PBMC cells
# [30] = tested on: Human immunodeficiency virus 1; assay: microbe, parasite or virus in culture; conditions: Human immunodeficiency virus 1, Ba-L, PBMC, 168 h
# Description: Antiviral activity against CCR5-dependent HIV1 Ba-L infected in human PBMC assessed as reduction in virus infection measured 7 days by luciferase reporter gene assay
# [31] = Half life in Sprague-Dawley rat at 10 mg/kg, iv by LC-MS/MS analysis; format: ADME, organism-based; conditions: in vivo
# Cytochrome P450 3A4 [32] = biological target: T1, Cytochrome P450 3A4 (Homo sapiens, UniProt P08684); assay: Inhibition of CYP3A4 (unknown origin) using midazolam as substrate; format: ADME
# T1 sequence (P08684 whole entry): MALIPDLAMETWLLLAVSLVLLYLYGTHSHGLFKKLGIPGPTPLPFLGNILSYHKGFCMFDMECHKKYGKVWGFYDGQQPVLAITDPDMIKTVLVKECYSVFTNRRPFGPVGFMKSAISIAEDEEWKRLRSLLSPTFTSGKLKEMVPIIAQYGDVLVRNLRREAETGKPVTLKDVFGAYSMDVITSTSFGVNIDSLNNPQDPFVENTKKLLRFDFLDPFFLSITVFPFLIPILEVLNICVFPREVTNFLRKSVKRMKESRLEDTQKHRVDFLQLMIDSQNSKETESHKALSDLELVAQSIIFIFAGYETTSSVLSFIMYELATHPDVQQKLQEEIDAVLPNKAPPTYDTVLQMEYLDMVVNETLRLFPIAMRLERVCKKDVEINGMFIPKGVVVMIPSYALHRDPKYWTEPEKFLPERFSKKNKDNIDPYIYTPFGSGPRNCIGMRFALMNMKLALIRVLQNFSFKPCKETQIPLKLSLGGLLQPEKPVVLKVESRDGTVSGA
# [33] = MRT in dog at 15 mg/kg, po by LC-MS/MS analysis; format: ADME, organism-based, Canis lupus familiaris; conditions: in vivo
# [34] = Cmax in Sprague-Dawley rat at 10 mg/kg, iv by LC-MS/MS analysis; format: ADME, organism-based; set-up: dose 10 mg/kg, route intravenous; conditions: in vivo
# Cytochrome P450 2C9 = Cytochrome P450 2C9 (Homo sapiens, UniProt P11712); assay: Inhibition of CYP2C9 (unknown origin); format: ADME
# Cytochrome P450 2C9, sequence (P11712 whole entry): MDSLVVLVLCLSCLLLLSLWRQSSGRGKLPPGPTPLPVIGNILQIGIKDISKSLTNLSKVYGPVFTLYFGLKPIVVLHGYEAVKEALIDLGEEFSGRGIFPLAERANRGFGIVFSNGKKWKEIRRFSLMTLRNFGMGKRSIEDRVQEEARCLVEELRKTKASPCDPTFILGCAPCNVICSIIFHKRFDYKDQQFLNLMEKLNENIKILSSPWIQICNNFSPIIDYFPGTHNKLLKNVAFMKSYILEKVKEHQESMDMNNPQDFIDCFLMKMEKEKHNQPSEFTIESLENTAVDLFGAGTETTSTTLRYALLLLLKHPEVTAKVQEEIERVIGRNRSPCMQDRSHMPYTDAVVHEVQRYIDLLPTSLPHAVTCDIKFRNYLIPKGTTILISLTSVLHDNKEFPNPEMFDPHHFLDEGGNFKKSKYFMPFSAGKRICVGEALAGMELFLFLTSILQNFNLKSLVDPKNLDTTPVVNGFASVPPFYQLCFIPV
# Cytochrome P450 3A4 [35] = biological target: T1, Cytochrome P450 3A4; assay: Inhibition of CYP3A4 (unknown origin) using testosterone as substrate; format: ADME
# in vitro [36] = conditions: human, TZM-bl cells
# Description: Therapeutic index, ratio of CC50 for human TZM-bl cells to EC50 for CCR5-dependent HIV1 SF162 infected in human TZM-bl cells
# [37] = Oral bioavailability in dog at 15 mg/kg by LC-MS/MS analysis; format: ADME, organism-based, Canis lupus familiaris; conditions: in vivo
# [38] = tested on: Human immunodeficiency virus 1; assay: microbe, parasite or virus in culture; conditions: Human immunodeficiency virus 1, Ba-L, PM1, 120 h
# Description: Antiviral activity against CCR5-dependent HIV1 Ba-L infected in human PM1 cells assessed as reduction in virus infection measured after 5 days by luciferase reporter gene assay
# [39] = biological target: C-C chemokine receptor type 5 (Homo sapiens, UniProt P51681); assay: Antagonist activity at CCR5 (unknown origin) expressed in HEK293 cells co-expressing Galpha16 assessed as inhibition of RANTES-induced calcium flux preincubated for 10 mins followed by RANTES addition by fluo-4AM-based fluorescence assay; format: functional, cell-based
# C-C chemokine receptor type 5, sequence (P51681 whole entry): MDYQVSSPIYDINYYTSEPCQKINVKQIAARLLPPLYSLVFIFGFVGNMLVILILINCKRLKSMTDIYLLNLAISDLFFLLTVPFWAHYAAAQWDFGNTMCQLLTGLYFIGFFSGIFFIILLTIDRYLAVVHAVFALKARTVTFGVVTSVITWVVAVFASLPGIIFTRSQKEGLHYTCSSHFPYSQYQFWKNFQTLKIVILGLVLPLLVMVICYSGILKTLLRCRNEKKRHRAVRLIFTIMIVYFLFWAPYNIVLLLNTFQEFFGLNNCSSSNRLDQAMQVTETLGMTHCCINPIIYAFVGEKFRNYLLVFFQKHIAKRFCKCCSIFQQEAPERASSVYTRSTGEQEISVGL
# [40] = Half life in dog at 3 mg/kg, iv by LC-MS/MS analysis; format: ADME, organism-based, Canis lupus familiaris; conditions: in vivo
# [41] = Tmax in Sprague-Dawley rat at 20 mg/kg, po by LC-MS/MS analysis; format: ADME, organism-based; conditions: in vivo
# Cytochrome P450 1A2 = biological target: T2, Cytochrome P450 1A2 (Homo sapiens, UniProt P05177); assay: Inhibition of CYP1A2 (unknown origin); format: ADME
# T2 sequence (P05177 whole entry): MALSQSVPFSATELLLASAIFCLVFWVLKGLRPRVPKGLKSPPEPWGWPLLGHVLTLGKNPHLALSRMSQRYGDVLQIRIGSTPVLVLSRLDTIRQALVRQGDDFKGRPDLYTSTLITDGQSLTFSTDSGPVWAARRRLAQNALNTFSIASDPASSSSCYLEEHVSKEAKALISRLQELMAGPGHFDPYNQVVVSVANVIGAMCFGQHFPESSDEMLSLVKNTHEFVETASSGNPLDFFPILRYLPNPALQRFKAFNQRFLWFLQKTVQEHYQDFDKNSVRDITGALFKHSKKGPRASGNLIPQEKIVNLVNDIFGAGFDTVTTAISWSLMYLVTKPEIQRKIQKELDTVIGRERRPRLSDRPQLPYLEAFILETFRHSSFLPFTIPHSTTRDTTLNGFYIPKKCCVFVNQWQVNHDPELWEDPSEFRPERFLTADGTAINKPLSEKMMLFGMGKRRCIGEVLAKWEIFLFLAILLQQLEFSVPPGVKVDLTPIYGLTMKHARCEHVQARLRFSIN
# [42] = tested on: Human immunodeficiency virus 1; assay: microbe, parasite or virus in culture; conditions: Human immunodeficiency virus 1, SF162, TZM-bl, 48 h
# Description: Antiviral activity against CCR5-dependent HIV1 SF162 infected in human TZM-bl cells assessed as reduction in virus infection measured after 48 hrs post infection by luciferase reporter gene assay
# in vitro [43] = conditions: human, PBMC; remark: listed apart in the source
# Description: Therapeutic index, ratio of CC50 for human PBMC to IC50 for CCR5-dependent HIV1 Ba-L infected in human PBMC
# in vitro [44] = conditions: human, HOS cells; remark: listed apart in the source
# Description: Therapeutic index, ratio of CC50 for human HOS cells to IC50 for CCR5-dependent HIV1 Ba-L infected in human HOS cells
# [45] = MRT in Sprague-Dawley rat at 10 mg/kg, iv by LC-MS/MS analysis; format: ADME, organism-based; conditions: in vivo
# in vitro [46] = conditions: human, PM1 cells
# Description: Therapeutic index, ratio of CC50 for human PM1 cells to IC50 for CCR5-dependent HIV1 Ba-L infected in human PM1 cells
# [47] = Clearance in dog at 3 mg/kg, iv by LC-MS/MS analysis; format: ADME, organism-based, Canis lupus familiaris; conditions: in vivo
# [48] = Tmax in Sprague-Dawley rat at 10 mg/kg, iv by LC-MS/MS analysis; format: ADME, organism-based; conditions: in vivo
compound,measurement,setting,value
Cc1nnc(C(C)C)n1[C@@H]1C[C@H]2CC[C@@H](C1)N2CC[C@H](NC(=O)C1CCC(F)CC1)c1ccsc1 (some centres not stated),Drug uptake,[1],Active
same,Drug uptake,[2],Active
same,Drug uptake,[3],Active
same,Drug uptake,[4],Active
same,Drug uptake,[5],Active
same,Drug uptake,[6],Active
same,Drug uptake,[7],Active
Cc1nnc(C(C)C)n1[C@@H]1C[C@H]2CC[C@@H](C1)N2CC[C@H](NC(=O)C1CCCC1)c1cccs1,Cmax,[8],436 ng/mL
same,AUC(0-inf),[9],1670 ng·h/mL
same,selectivity ratio,in vitro [10],4000
same,IC50,[11],190 nM
same,AUC(0-inf),[12],2500 ng·h/mL
same,Cmax,[13],1160 ng/mL
same,IC50,[14],123 nM
same,IC50,[15],21 nM
same,IC50,[16],1.6 nM
same,IC50,[17],1520 nM
same,bioavailability,[18],33.4%
same,MRT,[19],3.02 h
same,AUC(0-inf),[20],1100 ng·h/mL
same,half-life,[21],150 min
same,MRT,[22],42 min
same,AUC(0-inf),[23],2160 ng·h/mL
same,clearance,[24],66.5 mL/min/kg
same,selectivity ratio,in vitro [25],25000
same,Tmax,[26],48 min
same,IC50,Cytochrome P450 2D6,16.8 µM
same,half-life,[27],99 min
same,CC50 at 48 h,[28],> 200 µM
same,IC50,Cytochrome P450 2C19,> 25 µM
same,selectivity ratio,in vitro [29],6100
same,IC50,[30],127 nM
same,half-life,[31],78.6 min
same,IC50,Cytochrome P450 3A4 [32],> 25 µM
same,MRT,[33],2.4 h
same,Cmax,[34],2220 ng/mL
same,IC50,Cytochrome P450 2C9,> 25 µM
same,IC50,Cytochrome P450 3A4 [35],> 25 µM
same,selectivity ratio,in vitro [36],> 150000
same,bioavailability,[37],38.1%
same,IC50,[38],3.4 nM
same,IC50,[39],3.1 nM
same,half-life,[40],54 min
same,Tmax,[41],2 h
same,IC50,Cytochrome P450 1A2,> 25 µM
same,IC50,[42],1.3 nM
same,selectivity ratio,in vitro [43],5900
same,selectivity ratio,in vitro [44],330000
same,MRT,[45],54.6 min
same,selectivity ratio,in vitro [46],220000
same,clearance,[47],46.7 mL/min/kg
same,Tmax,[48],15 min
